Reference: article PMC9890698 (BMC Biology, 2023)
Where “and” joins values, the source holds several entries; their conditions need not be identical. Equal values may be shown once.

Legend:
Human P2Y1-R = molecular target: T1, Human P2Y1-R (Homo sapiens, UniProt P47900); assay: Gαq protein activation BRET2 assay (Gαq-RLuc8/GFP2-Gγ2/Gβ1) in HEK293T cells expressing P2Y1-R; format: cell-based; details: for G protein signaling, Ligand-modulated BRET (% of maximum MRS2179 mean value): Figure 4a, individual replicates
T1 construct: expressed in transfected cells; host or cells: HEK293T/17

[1] = tested on: washed human platelets (P2Y1-R/Gαq signaling); assay: IP1 accumulation assay (HTRF) in washed human platelets; format: cell-based; details: washed human platelets, ADP 100 μM, antagonists 10 μM, Gq inhibitor 100 nM, 2 h, apyrase 0.02 U/mL, result in words
Procedure, shortened: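 Washed platelets (3.10^6 per well, pH 7.4 Tyrode's with 1 mM CaCl2, pre-rested with apyrase and 10 μM indomethacin) were exposed to compounds for 30 min or 2 h at 37 °C with 50 mM LiCl. IP1 was measured by HTRF competitive immunoassay (665/620 nm ratio) and converted via standard curve.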

[2] = G protein signaling, Fig. 4a, 1 min

T1 sequence (P47900 whole entry): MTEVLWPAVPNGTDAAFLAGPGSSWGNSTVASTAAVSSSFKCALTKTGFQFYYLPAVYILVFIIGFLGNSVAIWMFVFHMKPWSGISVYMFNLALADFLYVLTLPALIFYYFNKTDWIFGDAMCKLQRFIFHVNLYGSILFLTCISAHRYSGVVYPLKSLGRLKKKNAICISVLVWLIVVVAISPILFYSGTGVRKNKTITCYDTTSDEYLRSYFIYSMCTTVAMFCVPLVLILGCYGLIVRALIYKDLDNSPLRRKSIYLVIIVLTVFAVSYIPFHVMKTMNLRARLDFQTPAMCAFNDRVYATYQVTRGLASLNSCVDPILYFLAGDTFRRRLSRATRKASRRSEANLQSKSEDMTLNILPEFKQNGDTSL

SMILES: CNc1nc(I)nc2c1ncn2[C@H]1C[C@H](OP(=O)(O)O)[C@]2(COP(=O)(O)O)C[C@H]12 [MRS2500, 2-iodo-N6-methyl-(N)-methanocarba-2′-deoxyadenosine-3′,5′-bisphosphate]
- G protein signaling, Ligand-modulated BRET (% of maximum MRS2179 mean value) (Human P2Y1-R; [Ligand] 1.00E-04 M): 155.404 % of maximum MRS2179 mean value and 138.849 % of maximum MRS2179 mean value and 107.119 % of maximum MRS2179 mean value and 132.185 % of maximum MRS2179 mean value and 125.72 % of maximum MRS2179 mean value and 141.754 % of maximum MRS2179 mean value
- G protein signaling, Ligand-modulated BRET (% of maximum MRS2179 mean value) (Human P2Y1-R; [Ligand] 1.00E-05 M): 122.914 % of maximum MRS2179 mean value and 111.352 % of maximum MRS2179 mean value and 93.6281 % of maximum MRS2179 mean value and 124.36 % of maximum MRS2179 mean value and 97.7584 % of maximum MRS2179 mean value and 107.998 % of maximum MRS2179 mean value
- G protein signaling, Ligand-modulated BRET (% of maximum MRS2179 mean value) (Human P2Y1-R; [Ligand] 1.00E-06 M): 73.5711 % of maximum MRS2179 mean value and 80.459 % of maximum MRS2179 mean value and 53.1675 % of maximum MRS2179 mean value and 68.2708 % of maximum MRS2179 mean value and 52.8113 % of maximum MRS2179 mean value and 71.2103 % of maximum MRS2179 mean value
- G protein signaling, Ligand-modulated BRET (% of maximum MRS2179 mean value) (Human P2Y1-R; [Ligand] 1.00E-07 M): 18.6255 % of maximum MRS2179 mean value and 25.6955 % of maximum MRS2179 mean value and 14.1554 % of maximum MRS2179 mean value and 20.945 % of maximum MRS2179 mean value and 1.4 % of maximum MRS2179 mean value and 18.5955 % of maximum MRS2179 mean value
- G protein signaling, Ligand-modulated BRET (% of maximum MRS2179 mean value) (Human P2Y1-R; [Ligand] 1.00E-08 M): 1.081 % of maximum MRS2179 mean value and -4.947 % of maximum MRS2179 mean value and -10.1975 % of maximum MRS2179 mean value and -7.982 % of maximum MRS2179 mean value and -25.6775 % of maximum MRS2179 mean value and 3.691 % of maximum MRS2179 mean value
- G protein signaling, Ligand-modulated BRET (% of maximum MRS2179 mean value) (Human P2Y1-R; [Ligand] 1.00E-09 M): -4.558 % of maximum MRS2179 mean value and -14.6104 % of maximum MRS2179 mean value and -16.9372 % of maximum MRS2179 mean value and -9.323 % of maximum MRS2179 mean value and -17.5921 % of maximum MRS2179 mean value and 4.08 % of maximum MRS2179 mean value
- G protein signaling, Ligand-modulated BRET (% of maximum MRS2179 mean value) (Human P2Y1-R; [Ligand] 1.00E-10 M): -10.8256 % of maximum MRS2179 mean value and -10.2571 % of maximum MRS2179 mean value and -9.064 % of maximum MRS2179 mean value and -13.8903 % of maximum MRS2179 mean value and -18.6423 % of maximum MRS2179 mean value and -6.511 % of maximum MRS2179 mean value
- EC50 (Human P2Y1-R; [2]): 772 nM
- pEC50 ± s.e.m. (Human P2Y1-R; [2]): 6.113 ± 0.07237
- Emax ± s.e.m. (Human P2Y1-R; G protein signaling, Fig. 4a, 1 min, normalized to the mean value of maximal MRS2179 response, in %): 127.2 ± 3.892
- Behaviour on P2Y1-R-dependent constitutive Gαq protein activation (Human P2Y1-R; HEK293T cells, result in words): behaved as inverse agonists
- Effect on IP1 levels [1]: inverse agonist efficacy
